Test results as given in US4335249A, “Herbicidal diphenyl ethers, sulfides, sulfoxides and sulfones” (Rohm and Haas Company, priority 1976, dated 1982).

Experiments:
Type in all cases: in vivo
wild oats (Avena fatua) [1] = assay: Preemergence herbicidal activity, wild oats; conditions: Avena fatua, pre-emergence, 336 h, Pre, read-out: % control, Wild oat; for pest or weed control at 2241.7 g/ha: 2 lb/A
Experimental: (§1) Using the procedure described below, compounds of the invention are evaluated for control of several of the following plant species:
(§2) The following est procedure is employed. Seeds of selected crops and weeds are planted in soil in flats. For preemergence tests, the flats are treated with the test compound immediately after the planting. For postemergence tests, the seeds are allowed to germinate, and after two weeks the flats are treated with the test compound. The compound to be evaluated is dissolved in acetone, diluted with water, and sprayed over the flats using a carrier volume equivalent to 50 gallons per acre at the rate of application (pounds per acre, lb/A.) specified in the tables. About two weeks after the application of the test compound, the state of growth of the plants is observed and the phytotoxic effect of the compound is evaluated. Tables III and IV give the average percent control achieved by test compounds in terms of the percent of the plants which are killed by the compounds.

[2] = test system: velvetleaf (Abutilon theophrasti); assay: Preemergence herbicidal activity, velvetleaf; conditions: Abutilon theophrasti, pre-emergence, 336 h, Pre; for pest or weed control at 2241.7 g/ha: 2 lb/A
Experimental: as §1, §2

marigold (Tagetes spp.) [3] = assay: Preemergence herbicidal activity, marigold; conditions: pre-emergence, 336 h; for pest or weed control at 2241.7 g/ha: 2 lb/A
Experimental: as §1, §2

wild oats (Avena fatua) [4] = assay: Postemergence herbicidal activity, wild oats; conditions: Avena fatua, post-emergence, 336 h, Post, read-out: % control, Wild oat; for pest or weed control at 2241.7 g/ha: 2 lb/A
Experimental: as §1, §2

[5] = test system: morningglory (Ipomoca spp.); assay: Preemergence herbicidal activity, morningglory; conditions: Ipomoea, pre-emergence, 336 h; for pest or weed control at 2241.7 g/ha: 2 lb/A
Experimental: as §1, §2

[6] = test system: cocklebur (Xanthium pensylvanicum); assay: Preemergence herbicidal activity, cocklebur; conditions: Xanthium strumarium, pre-emergence, 336 h; for pest or weed control at 2241.7 g/ha: 2 lb/A
Experimental: as §1, §2

[7] = test system: tomato (Lycopersicon esculentum); assay: Preemergence herbicidal activity, tomato; conditions: Solanum lycopersicum, pre-emergence, 336 h, Pre; for pest or weed control at 2241.7 g/ha: 2 lb/A
Experimental: as §1, §2

marigold (Tagetes spp.) [8] = assay: Postemergence herbicidal activity, marigold; conditions: post-emergence, 336 h; for pest or weed control at 2241.7 g/ha: 2 lb/A
Experimental: as §1, §2

foxtail (Setaria spp.) [9] = assay: Preemergence herbicidal activity, foxtail; conditions: Setaria, pre-emergence, 336 h, Pre; for pest or weed control at 2241.7 g/ha: 2 lb/A
Experimental: as §1, §2

[10] = test system: yellow nutsedge (Cyperus esculentus); assay: Preemergence herbicidal activity, yellow nutsedge; conditions: Cyperus, pre-emergence, 336 h; for pest or weed control at 2241.7 g/ha: 2 lb/A
Experimental: as §1, §2

[11] = test system: barnyardgrass (Echinochloa crusgalli); assay: Postemergence herbicidal activity, barnyardgrass; conditions: Echinochloa crus-galli, post-emergence, 336 h, Post; for pest or weed control at 2241.7 g/ha: 2 lb/A
Experimental: as §1
(§3) The following est procedure is employed. Seeds of selected crops and weeds are planted in soil in flats. For preemergence tests, the flats are treated with the test compound immediately after the planting. For postemergence tests, the seeds are allowed to germinate, and after two weeks the flats are treated with the test compound. The compound to be evaluated is dissolved in acetone, diluted with water, and sprayed over the flats using a carrier volume equivalent to 50 gallons per acre at the rate of application (pounds per acre, lb/A.) specified in the tables.

[12] = test system: downybrome (Bromus tectorum); assay: Postemergence herbicidal activity, downybrome; conditions: Bromus tectorum, post-emergence, 336 h, Post; for pest or weed control at 2241.7 g/ha: 2 lb/A
Experimental: as §1, §2

[13] = test system: velvetleaf (Abutilon theophrasti); assay: Postemergence herbicidal activity, velvetleaf; conditions: Abutilon theophrasti, post-emergence, 336 h; for pest or weed control at 2241.7 g/ha: 2 lb/A
Experimental: as §1, §3

[14] = test system: tomato (Lycopersicon esculentum); assay: Postemergence herbicidal activity, tomato; conditions: Solanum lycopersicum, post-emergence, 336 h, Post; for pest or weed control at 2241.7 g/ha: 2 lb/A
Experimental: as §1, §2

foxtail (Setaria spp.) [15] = assay: Postemergence herbicidal activity, foxtail; conditions: Setaria, post-emergence, 336 h, Post; for pest or weed control at 2241.7 g/ha: 2 lb/A
Experimental: as §1, §2

[16] = test system: yellow nutsedge (Cyperus esculentus); assay: Postemergence herbicidal activity, yellow nutsedge; conditions: Cyperus, post-emergence, 336 h; for pest or weed control at 2241.7 g/ha: 2 lb/A
Experimental: as §1, §2

[17] = test system: barnyardgrass (Echinochloa crusgalli); assay: Preemergence herbicidal activity, barnyardgrass; conditions: Echinochloa crus-galli, pre-emergence, 336 h, Pre; for pest or weed control at 2241.7 g/ha: 2 lb/A
Experimental: as §1, §3

[18] = test system: morningglory (Ipomoca spp.); assay: Postemergence herbicidal activity, morningglory; conditions: Ipomoea, post-emergence, 336 h; for pest or weed control at 2241.7 g/ha: 2 lb/A
Experimental: as §1, §2

[19] = test system: downybrome (Bromus tectorum); assay: Preemergence herbicidal activity, downybrome; conditions: Bromus tectorum, pre-emergence, 336 h, Pre; for pest or weed control at 2241.7 g/ha: 2 lb/A
Experimental: as §1, §2

[20] = test system: cocklebur (Xanthium pensylvanicum); assay: Postemergence herbicidal activity, cocklebur; conditions: Xanthium strumarium, post-emergence, 336 h; for pest or weed control at 2241.7 g/ha: 2 lb/A
Experimental: as §1, §2

| SMILES | pest or weed control at 2241.7 g/ha (wild oats (Avena fatua) [1]) | pest or weed control at 2241.7 g/ha [2] | pest or weed control at 2241.7 g/ha (marigold (Tagetes spp.) [3]) | pest or weed control at 2241.7 g/ha (wild oats (Avena fatua) [4]) | pest or weed control at 2241.7 g/ha [5] | pest or weed control at 2241.7 g/ha [6] | pest or weed control at 2241.7 g/ha [7] | pest or weed control at 2241.7 g/ha (marigold (Tagetes spp.) [8]) | pest or weed control at 2241.7 g/ha (foxtail (Setaria spp.) [9]) | pest or weed control at 2241.7 g/ha [10] | pest or weed control at 2241.7 g/ha [11] | pest or weed control at 2241.7 g/ha [12] | pest or weed control at 2241.7 g/ha [13] | pest or weed control at 2241.7 g/ha [14] | pest or weed control at 2241.7 g/ha (foxtail (Setaria spp.) [15]) | pest or weed control at 2241.7 g/ha [16] | pest or weed control at 2241.7 g/ha [17] | pest or weed control at 2241.7 g/ha [18] | pest or weed control at 2241.7 g/ha [19] | pest or weed control at 2241.7 g/ha [20] | other results |
| --- | --- | --- | --- | --- | --- | --- | --- | --- | --- | --- | --- | --- | --- | --- | --- | --- | --- | --- | --- | --- | --- |
| CCOC(=O)C(C)Oc1ccc(Sc2cccc(C(F)(F)F)c2)cc1 (centres unmarked) [Example 45, Ethyl 2-[4-(3-trifluoromethylphenylthio)phenoxy] propionate] |  |  |  |  |  |  |  |  |  |  |  |  |  |  |  |  |  |  |  |  | pest or weed control at 8966.8 g/ha (wild oats (Avena fatua) [1]; 8 lb/A): 0%; pest or weed control at 8966.8 g/ha ([2]; 8 lb/A): 0%; pest or weed control at 8966.8 g/ha (marigold (Tagetes spp.) [3]; 8 lb/A): 0%; pest or weed control at 4483.4 g/ha (wild oats (Avena fatua) [4]; 4 lb/A): 20%; pest or weed control at 8966.8 g/ha ([5]; 8 lb/A): 0%; pest or weed control at 8966.8 g/ha ([6]; 8 lb/A): 0%; pest or weed control at 8966.8 g/ha ([7]; 8 lb/A): 0%; pest or weed control at 4483.4 g/ha (marigold (Tagetes spp.) [8]; 4 lb/A): 0%; pest or weed control at 8966.8 g/ha (foxtail (Setaria spp.) [9]; 8 lb/A): 0%; pest or weed control at 8966.8 g/ha ([10]; 8 lb/A): 0%; pest or weed control at 4483.4 g/ha ([11]; 4 lb/A): 20%; pest or weed control at 4483.4 g/ha ([12]; 4 lb/A): 20%; pest or weed control at 4483.4 g/ha ([13]; 4 lb/A): 0%; pest or weed control at 4483.4 g/ha ([14]; 4 lb/A): 80%; pest or weed control at 4483.4 g/ha (foxtail (Setaria spp.) [15]; 4 lb/A): 30%; pest or weed control at 4483.4 g/ha ([16]; 4 lb/A): 0%; pest or weed control at 8966.8 g/ha ([17]; 8 lb/A): 0%; pest or weed control at 4483.4 g/ha ([18]; 4 lb/A): 0%; pest or weed control at 8966.8 g/ha ([19]; 8 lb/A): 0%; pest or weed control at 4483.4 g/ha ([20]; 4 lb/A): 0% |
| CC(Oc1ccc(Oc2ccc(C(F)(F)F)cc2)cc1)C(N)=O (centres unmarked) [Example 40, 2-[4-(4-trifluoromethylphenoxy)phenoxy] propanamide] | 60% | 0% | 0% | 95% | 0% | 0% | 0% | 0% | 100% | 0% | 99% | 40% | 0% | 0% | 95% | 0% | 99% | 0% | 80% | 20% |  |
| CCNC(=O)C(C)Oc1ccc(Oc2ccc(C(F)(F)F)cc2Cl)cc1 (centres unmarked) [Example 21] | 40% | 0% | 0% | 99% | 0% | 0% | 0% | 0% | 100% | 0% | 100% | 30% | 0% | 0% | 100% | 0% | 100% | 0% | 90% | 0% |  |
| CCOC(=O)C(C)Oc1ccc(Oc2ccc(C(F)(F)F)cc2C#N)cc1 (centres unmarked) [Example 37] | 0% | 20% | 0% | 90% | 40% | 0% | 20% | 10% | 60% | 0% | 100% | 90% | 0% | 30% | 95% | 0% | 100% | 10% | 95% | 30% |  |
